# In patent US7273845B2, “Polymeric prodrugs of vancomycin” (priority 2002, dated 2007):
# Columns and labels:
# [1] = test system: E.coli (25922); test: Minimum Inhibitory Concentration (MIC), E.coli (25922); format: cell-based; settings: vancomycin equivalents
# [2] = test system: Staphylococcus aureus (Smith); test: LD90-100 examination, compound given after S. aureus (Smith) challenge, survival; format: in vivo, ICR Swiss mice; settings: 100 mg/kg vancomycin equivalents in two equal split doses 1 and 2.5 h following LD90-100 S. aureus (Smith) inoculation; survival after 1 week
# Description: Studies examining the in vivo anti-infective potential of PEG-vancomycin conjugates in ICR Swiss mice were performed. […] As controls, S. aureus (Smith) challenged mice were administered either saline or 100 mg/kg vancomycingiven in equal split doses. Ten mice were used per compound tested.
# [3] = test system: S. aureus (29214); test: Minimum Inhibitory Concentration (MIC), S. aureus (29214); format: cell-based; settings: vancomycin equivalents
# [4] = Circulatory pharmacokinetics after single intravenous dose in rats; settings: for Vss: 50 mg/kg
# Description: PEG-vancomycin conjugates containing a 50 mg/kg vancomycin equivalent dose and 50 mg/kg native vancomycin (1) were injected as a single intravenous dose into the tail vein of conscious rats at a rate of 0.5 ml/min [˜2.5 min]. […] A 250 μL bled was done on rats sedated with 30% O2/70% CO2 via the retro-orbital plexus into EDTA containing vials. Blood was immediately processed for plasma and frozen on dry ice. Plasma samples were stored at −80° C. until analyzed. The plasma samples were analyzed by a fluorescence polarization immunoassay using an Abbott Laboratories TDx analyzer within two hours of thawing. A single compartment model using WinNonlin™ software was used to determine the-plasma pharmacokinetic parameters.
# [5] = test system: S. aureus (6538P); test: Minimum Inhibitory Concentration (MIC), S. aureus (6538P); format: cell-based; settings: vancomycin equivalents
# [6] = test system: S. aureus (Smith); test: Sustained anti-infective protection, compound given before LD90-100 S. aureus (Smith) challenge, survival; format: in vivo, ICR Swiss mice
# Description: A second study was also performed to examine the sustained anti-infective protection of PEG-vancomycin conjugate 22. ICR Swiss mice were administered with either 100 mg/kg vancomycin equivalents of 22, 100 mg/kg vancomycin, or saline in two equally split doses 1½ hours apart. Ten mice per treatment group were used.
# [7] = test system: E. faecalis (29212); test: Minimum Inhibitory Concentration (MIC), E. faecalis (29212); format: cell-based; settings: vancomycin equivalents
# [8] = 50 mg/kg vancomycin equivalents i.v.
# [9] = intravenous bolus 50 mg/kg vancomycin equivalents, plasma
substance,measurement,setting,value
vancomycin [Compound 1],MIC E.coli (25922),[1],>100 µg/mL
same,Post Challenge % Survival (mice),[2],100%
same,MIC S. aureus (29214),[3],3.1 µg/mL
same,Cmax,[4]; [8],162 µg/mL
same,area under the curve (AUC),[4]; [8],78800 ng·h/mL
same,circulatory half-life (t1/2),[4]; [8],20.4 min
same,clearance (CL),[4]; [8],10.7 mL/min/kg
same,AUC,[4]; [9],78800 ± 10800 ng·h/mL
same,CL,[4]; [9],10.7 ± 1.4 mL/min/kg
same,Cmax,[4]; [9],162.0 ± 9.0 µg/mL
same,Plasma Half-life,[4]; [9],20.4 ± 2.4 min
same,Vss,[4]; [9],0.3093 ± 0.0172 L/kg
same,Vss,"[4]; intravenous bolus 50 mg/kg vancomycin equivalents, plasma, listed as Vancomycin",0.309 L/kg
same,MIC S. aureus (6538P),[5],1.6 µg/mL
same,anti-microbial protection against later S. aureus challenge (in words),"[6]; 100 mg/kg vancomycin equivalents given before challenge, ICR Swiss mice",no protection
same,Pre-Challenge % Survival (mice),"[6]; 100 mg/kg vancomycin equivalents in two split doses 1½ h apart, given prior to LD90-100 S. aureus (Smith) challenge, survival after 1 week",0%
same,MIC E. faecalis (29212),[7],6.2 µg/mL
